Assay results from BindingDB's records for doi:10.1021/jm00371a008 (1984).

biological target: Folylpolyglutamate synthase (Mus musculus); test: Compound was evaluated for the binding affinity to mouse liver folyl polyglutamate synthetase.

Row | Ki [µM] | Structure (SMILES)
1 | 59 | Nc1nc(N)c2nc(CNc3ccc(C(=O)NC(CCS(=O)(=O)O)C(=O)O)cc3)cnc2n1 (centres undefined) [2-{4-[(2,4-Diamino-pteridin-6-ylmethyl)-amino]-benzoylamino}-4-sulfo-butyric acid]
2 | 198 | CN(Cc1cnc2nc(N)nc(N)c2n1)c1ccc(C(=O)NC(CCS(=O)(=O)O)C(=O)O)cc1 (centres undefined) [2-{4-[(2,4-Diamino-pteridin-6-ylmethyl)-methyl-amino]-benzoylamino}-4-sulfo-butyric acid]
3 | 136 | CN(Cc1cnc2nc(N)nc(N)c2n1)c1ccc(C(=O)NC(CS(=O)(=O)O)C(=O)O)cc1 (centres undefined) [2-{4-[(2,4-Diamino-pteridin-6-ylmethyl)-methyl-amino]-benzoylamino}-3-sulfo-propionic acid]
4 | 43 | Nc1nc(N)c2nc(CNc3ccc(C(=O)NC(CS(=O)(=O)O)C(=O)O)cc3)cnc2n1 (centres undefined) [2-{4-[(2,4-Diamino-pteridin-6-ylmethyl)-amino]-benzoylamino}-3-sulfo-propionic acid]
